The source of these data is ChEMBL document CHEMBL4371060, “Identification of fluorinated (R)-(-)-aporphine derivatives as potent and selective ligands at serotonin 5-HT2C receptor” (Bioorg Med Chem Lett, 2019).

Assay [1] addresses 5-hydroxytryptamine receptor 2A (Homo sapiens, UniProt P28223). The experiment in a line: Displacement of [3H]ketanserin from 5HT2A receptor (unknown origin) expressed in HEK293T cell membranes.
Assay [2] addresses 5-hydroxytryptamine receptor 2B (Homo sapiens, UniProt P41595). In words: Displacement of [3H]LSD from 5HT2B receptor (unknown origin) expressed in HEK293 cell membranes.
Assay [3] has as its target T1, 5-hydroxytryptamine receptor 2C (Homo sapiens, UniProt P28335).
T1 sequence (P28335 whole entry): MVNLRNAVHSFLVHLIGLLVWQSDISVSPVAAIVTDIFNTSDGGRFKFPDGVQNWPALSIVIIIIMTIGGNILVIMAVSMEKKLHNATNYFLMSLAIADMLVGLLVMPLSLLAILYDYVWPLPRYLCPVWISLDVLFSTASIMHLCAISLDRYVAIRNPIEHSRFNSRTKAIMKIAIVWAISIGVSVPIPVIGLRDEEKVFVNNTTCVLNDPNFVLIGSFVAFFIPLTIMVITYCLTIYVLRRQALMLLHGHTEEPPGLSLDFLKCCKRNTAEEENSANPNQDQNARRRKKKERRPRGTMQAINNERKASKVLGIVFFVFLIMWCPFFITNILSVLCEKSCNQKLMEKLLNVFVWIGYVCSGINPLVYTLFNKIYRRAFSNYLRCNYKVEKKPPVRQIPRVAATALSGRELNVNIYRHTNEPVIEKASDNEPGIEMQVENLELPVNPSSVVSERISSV
The experiment in a line: Displacement of [3H]mesulergine from 5HT2C receptor (unknown origin) expressed in HEK293T cell membranes. On the technique in general: In a radioligand displacement assay an active substance lowers the binding of a labelled ligand.

A short description of assay [4]: Selectivity ratio of Ki for displacement of [3H]DOI from recombinant human 5HT2B receptor expressed in HEK293T cell membranes to Ki for displacement of [3H]DOI from recombinant human 5HT2C receptor expressed in HEK293T cell membranes.
The target of assay [5] is Serotonin 2 receptors; 5-HT2a & 5-HT2c (Homo sapiens) (UniProt P28223+P28335). The experiment in a line: Selectivity ratio of Ki for displacement of [3H]ketanserin from 5HT2A receptor (unknown origin) expressed in HEK293T cell membranes to Ki for displacement of [3H]mesulergine from 5HT2C receptor (unknown origin) expressed in HEK293T cell membranes.
Chain of Serotonin 2 receptors; 5-HT2a & 5-HT2c (Homo sapiens) (P28223 whole entry, looked up, one chain of several): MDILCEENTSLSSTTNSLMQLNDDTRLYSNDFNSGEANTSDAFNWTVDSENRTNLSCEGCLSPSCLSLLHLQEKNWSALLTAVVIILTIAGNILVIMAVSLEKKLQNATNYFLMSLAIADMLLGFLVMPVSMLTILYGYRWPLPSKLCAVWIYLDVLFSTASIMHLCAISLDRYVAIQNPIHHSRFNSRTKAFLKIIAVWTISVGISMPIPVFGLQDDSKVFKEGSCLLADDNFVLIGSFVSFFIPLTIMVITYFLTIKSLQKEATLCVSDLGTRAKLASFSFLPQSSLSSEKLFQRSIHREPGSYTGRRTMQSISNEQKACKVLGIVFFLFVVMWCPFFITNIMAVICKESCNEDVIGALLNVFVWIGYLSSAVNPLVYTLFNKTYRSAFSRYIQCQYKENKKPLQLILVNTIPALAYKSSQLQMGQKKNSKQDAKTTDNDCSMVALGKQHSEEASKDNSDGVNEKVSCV
For the next assay, the species on record is Homo sapiens. In words: Selectivity ratio of Ki for displacement of [3H]LSD from 5HT2B receptor (unknown origin) expressed in HEK293 cell membranes to Ki for displacement of [3H]mesulergine from 5HT2C receptor (unknown origin) expressed in HEK293T cell membranes.

SMILES strings stand for the structures.

Chain of 5-hydroxytryptamine receptor 2A (P28223 whole entry): as the sequence (P28223 whole entry, looked up, one chain of several) above
Chain of 5-hydroxytryptamine receptor 2B (P41595 whole entry): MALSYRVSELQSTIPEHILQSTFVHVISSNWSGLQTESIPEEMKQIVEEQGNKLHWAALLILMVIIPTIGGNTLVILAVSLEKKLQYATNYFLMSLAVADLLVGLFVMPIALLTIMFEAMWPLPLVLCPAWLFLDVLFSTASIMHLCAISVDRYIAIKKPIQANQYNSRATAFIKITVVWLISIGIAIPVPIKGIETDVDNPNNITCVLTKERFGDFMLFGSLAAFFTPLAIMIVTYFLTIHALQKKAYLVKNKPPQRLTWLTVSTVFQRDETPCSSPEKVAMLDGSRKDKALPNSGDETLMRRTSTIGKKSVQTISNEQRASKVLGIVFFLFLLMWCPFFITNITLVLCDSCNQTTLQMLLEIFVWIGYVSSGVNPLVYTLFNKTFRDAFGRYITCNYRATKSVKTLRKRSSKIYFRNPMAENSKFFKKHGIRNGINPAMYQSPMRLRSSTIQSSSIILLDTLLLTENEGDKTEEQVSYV

What is called Ki is a dissociation constant, usually derived from enzyme kinetics or from competition with a known ligand. On to `CCCN1CCc2cc(OC)cc3c2[C@H]1Cc1cccc(OCCCF)c1-3`, for which the Ki in assay [1], in assay [2] and in assay [3] was more than 10000 nM each time.

Turning to `C[C@H]1CNCCc2ccc(Cl)cc21` [LORCASERIN], the Ki in assay [4] is 12 nM.

In the case of `CCCN1CCc2cc(OC)cc3c2[C@H]1Cc1cccc(OCc2ccc(F)cc2)c1-3`, the Ki in assay [1], in assay [2] and in assay [3] was more than 10000 nM throughout.

For `COc1cc2c3c(c1)-c1c(cccc1OCCF)C[C@H]3N(C)CC2`, the Ki in assay [1] worked out at 1140 nM; in assay [2], 552 nM; in assay [3] it was 343 nM. Besides, the Ratio Ki came to 3.3 in assay [5] and 1.6 in the assay listed under Homo sapiens.

Take `COc1cc2c3c(c1)-c1c(cccc1OC(=O)c1ccc(F)cc1)C[C@H]3N(C)CC2`: the Ki in assay [1] was 450 nM; in assay [2], 102 nM; in assay [3], 32 nM. Moreover, the Ratio Ki turned out to be 14 in assay [5] and 3.2 in the assay filed under Homo sapiens.

For the molecule `COc1cc2c3c(c1)-c1c(cccc1OCCCF)C[C@H]3N(C)CC2`, the Ki in assay [1] was 434 nM; in assay [2], 422 nM; in assay [3], 338 nM. Moreover, the Ratio Ki in assay [5] amounted to 1.3; in the assay filed under Homo sapiens it was 1.2.

On to `CCCN1CCc2cc(OC)cc3c2[C@H]1Cc1cccc(OCCF)c1-3`, for which the values for the Ki in assay [1], in assay [2] and in assay [3] were more than 10000 nM, 3040 nM and more than 10000 nM, respectively.

Turning to `COc1cc2c3c(c1)-c1c(cccc1OCc1ccc(F)cc1)C[C@H]3N(C)CC2`, the Ki in assay [1] was 2310 nM; in assay [2] it was 2680 nM; in assay [3] it was more than 10000 nM.

In the case of `CCCN1CCc2cc(OC)cc3c2[C@H]1Cc1cccc(OC(=O)c2ccc(F)cc2)c1-3`, the Ki turned out to be 414 nM in assay [1], 106 nM in assay [2] and 24 nM in assay [3]. The Ratio Ki in assay [5] was 17; in the assay listed under Homo sapiens, 4.4.
